Source: ChEMBL document CHEMBL1129817, “Novel water-soluble analogues retaining potent antitumor activity of RA-VII, a cyclic hexapeptide from Rubia plants” (Bioorg Med Chem Lett, 1997)
Converted amounts (≈) assume the structure as drawn. “And” between values parts separate entries of the source, which are not always exact repeats. Identical values can stand only once.

Key:
P388 [1] = assay: Percentage of the median survival time of P388 leukemic mice (T) at intraperitoneal administration of 1.6 mg/kg dose to that of controls (C); type: functional, Mus musculus
P388 [2] = assay: Percentage of the median survival time of P388 leukemic mice (T) at intraperitoneal administration of 6.25 mg/kg dose to that of controls (C); type: functional, Mus musculus
P388 [3] = assay: Percentage of the median survival time of P388 leukemic mice (T) at intraperitoneal administration of 0.4 mg/kg dose to that of controls (C); type: functional, Mus musculus
B16 [4] = assay: Compound was evaluated for percent tumor volume against B16 melanoma in mice (T) at 6.25 mg/kg intravenous administration after 11 days ot that of control (C); type: functional, Mus musculus
Colon 26 [5] = assay: Compound was evaluated for percent tumor volume against colon 26 cells in mice (T) at a dose of 1.6 mg/kg intravenous administration after 10 days ot that of control (C); type: functional, Mus musculus
Colon 26 [6] = assay: Compound was evaluated for percent tumor volume against colon 26 cells in mice (T) at a dose of 3.13 mg/kg intravenous administration after 10 days ot that of control (C), (Number of mice surviving / number of mice tested; T/C), 7/8; type: functional, Mus musculus
B16 [7] = assay: Compound was evaluated for percent tumor volume against B16 melanoma in mice (T) at 6.25 mg/kg intravenous administration after 8 days ot that of control (C); type: functional, Mus musculus
Colon 26 [8] = assay: Compound was evaluated for percent tumor volume against colon 26 cells in mice (T) at a dose of 6.25 mg/kg intravenous administration after 8 days ot that of control (C); type: functional, Mus musculus
B16 [9] = assay: Compound was evaluated for percent tumor volume against B16 melanoma in mice (T) at 3.13 mg/kg intravenous administration after 8 days ot that of control (C); type: functional, Mus musculus
Colon 26 [10] = assay: Compound was evaluated for percent tumor volume against colon 26 cells in mice (T) at a dose of 3.13 mg/kg intravenous administration after 12 days ot that of control (C), (Number of mice surviving / number of mice tested); T/C, 6/8; type: functional, Mus musculus
Colon 26 [11] = assay: Compound was evaluated for percent tumor volume against colon 26 cells in mice (T) at a dose of 3.13 mg/kg intravenous administration after 8 days ot that of control (C); type: functional, Mus musculus
Colon 26 [12] = assay: Compound was evaluated for percent tumor volume against colon 26 cells in mice (T) at a dose of 6.25 mg/kg intravenous administration after 10 days ot that of control (C); type: functional, Mus musculus
Colon 26 [13] = assay: Compound was evaluated for percent tumor volume against colon 26 cells in mice (T) at a dose of 1.6 mg/kg intravenous administration after 8 days ot that of control (C); type: functional, Mus musculus
Colon 26 [14] = assay: Compound was evaluated for percent tumor volume against colon 26 cells in mice (T) at a dose of 6.25 mg/kg intravenous administration after 12 days ot that of control (C), (Number of mice surviving / number of mice tested); T/C, 7/8; type: functional, Mus musculus
B16 [15] = assay: Compound was evaluated for percent tumor volume against B16 melanoma in mice (T) at 3.13 mg/kg intravenous administration after 11 days ot that of control (C); type: functional, Mus musculus
Colon 26 [16] = assay: Compound was evaluated for percent tumor volume against colon 26 cells in mice (T) at a dose of 1.6 mg/kg intravenous administration after 12 days ot that of control (C); type: functional, Mus musculus
B16 [17] = assay: Compound was evaluated for percent tumor volume against B16 melanoma in mice (T) at 3.13 mg/kg intravenous administration after 13 days ot that of control (C); type: functional, Mus musculus
KB = assay: Compound was evaluated for cytotoxicity against human epidermoid carcinoma of nasopharynx (KB) cells; type: functional, cell-based
Colon 26 [18] = assay: Compound was evaluated for percent tumor volume against colon 26 cells in mice (T) at a dose of 3.13 mg/kg intravenous administration after 10 days ot that of control (C); type: functional, Mus musculus
Colon 26 [19] = assay: Compound was evaluated for percent tumor volume against colon 26 cells in mice (T) at a dose of 3.13 mg/kg intravenous administration after 12 days ot that of control (C); type: functional, Mus musculus
B16 [20] = assay: Compound was evaluated for percent tumor volume against B16 melanoma in mice (T) at 1.6 mg/kg intravenous administration after 8 days ot that of control (C); type: functional, Mus musculus
B16 [21] = assay: Compound was evaluated for percent tumor volume against B16 melanoma in mice (T) at 1.6 mg/kg intravenous administration after 13 days ot that of control (C); type: functional, Mus musculus
P388 [22] = assay: Percentage of the median survival time of P388 leukemic mice (T) at intraperitoneal administration of 0.8 mg/kg dose to that of controls (C); type: functional, Mus musculus
Colon 26 [23] = assay: Compound was evaluated for percent tumor volume against colon 26 cells in mice (T) at a dose of 6.25 mg/kg intravenous administration after 12 days ot that of control (C); type: functional, Mus musculus
P388 [24] = assay: Percentage of the median survival time of P388 leukemic mice (T) at intraperitoneal administration of 3.13 mg/kg dose to that of controls (C); type: functional, Mus musculus
B16 [25] = assay: Compound was evaluated for percent tumor volume against B16 melanoma in mice (T) at 1.6 mg/kg intravenous administration after 11 days ot that of control (C); type: functional, Mus musculus
P388 [26] = assay: Percentage of the median survival time of P388 leukemic mice (T) at intraperitoneal administration of 6.25 mg/kg dose to that of controls (C); Toxic; type: functional, organism-based; parameters: dose 6.25 mg/kg; conditions: Mus musculus
[27] = test system: KATO III stomach cancer cell line; assay: Compound was evaluated for cytotoxicity against KATO-III gastric carcinoma cells; type: functional, cell-based; conditions: Homo sapiens
L1210 = assay: Compound was evaluated for cytotoxicity against L1210 leukemia cells; type: functional, cell-based; conditions: Mus musculus

Question: What does the source list for `COc1ccc(C[C@H]2C(=O)N[C@@H](C)C(=O)N(C)[C@H]3Cc4cccc(c4)Oc4cc(ccc4OCCN4CCCCC4)C[C@@H](C(=O)N[C@H](C)C(=O)N[C@@H](C)C(=O)N2C)N(C)C3=O)cc1`?
Answer: T/C (P388 [1]): 123%; T/C (P388 [2]): 127%; T/C (P388 [3]): 115%

Question: `COc1ccc(C[C@H]2C(=O)N[C@@H](C)C(=O)N(C)[C@H]3Cc4cccc(c4)Oc4cc(ccc4OCCN4CCCCCC4)C[C@@H](C(=O)N[C@H](C)C(=O)N[C@@H](C)C(=O)N2C)N(C)C3=O)cc1` [listing 1 of 2 here] was tested. Which T/C (P388 [1]) did it give?
Answer: 123%

Question: What about the T/C (P388 [2]) of the same molecule?
Answer: 137%

Question: What about the T/C (P388 [3]) of the same molecule?
Answer: 112%

Question: What does the source list for `COc1ccc(C[C@H]2C(=O)N[C@@H](C)C(=O)N(C)[C@H]3Cc4cccc(c4)Oc4cc(ccc4OCCN(C)C)C[C@@H](C(=O)N[C@H](C)C(=O)N[C@@H](C)C(=O)N2C)N(C)C3=O)cc1` [listing 1 of 2 here]?
Answer: T/C (B16 [4]): 40.8%; T/C (P388 [1]): 145%; T/C (Colon 26 [5]): 76.7%; T/C (Colon 26 [6]): 55.8%; T/C (B16 [7]): 57% and 40.8%; T/C (Colon 26 [8]): 48.1%; T/C (B16 [9]): 77.2%; T/C (P388 [2]): 153%; T/C (Colon 26 [10]): 101.5%; T/C (Colon 26 [11]): 54.4%; T/C (Colon 26 [12]): 70%; T/C (Colon 26 [13]): 84.1%; T/C (Colon 26 [14]): 125.5%; T/C (B16 [15]): 67.9%; T/C (Colon 26 [16]): 102.5%; T/C (P388 [3]): 127%; T/C (B16 [17]): 140.5%

Question: `CCN(CCOc1ccc2cc1Oc1cccc(c1)C[C@H]1C(=O)N(C)[C@@H](C2)C(=O)N[C@H](C)C(=O)N[C@@H](C)C(=O)N(C)[C@@H](Cc2ccc(OC)cc2)C(=O)N[C@@H](C)C(=O)N1C)c1ccccc1` was tested. Which IC50 (KB) did it give?
Answer: 0.0099 µg/mL (≈ 0.011 µM)

Question: For `COc1ccc(C[C@H]2C(=O)N[C@@H](C)C(=O)N(C)[C@H]3Cc4cccc(c4)Oc4cc(ccc4OC)C[C@@H](C(=O)N[C@H](C)C(=O)N[C@@H](C)C(=O)N2C)N(C)C3=O)cc1`, which T/C (Colon 26 [18]) is on record?
Answer: 60.9%

Question: And the T/C (P388 [1])?
Answer: 152%

Question: And the T/C (Colon 26 [5])?
Answer: 72.8%

Question: And the T/C (Colon 26 [19])?
Answer: 85.6%

Question: And the T/C (Colon 26 [8])?
Answer: 49%

Question: And the T/C (B16 [9])?
Answer: 60%

Question: And the T/C (B16 [20])?
Answer: 65.8%

Question: And the T/C (Colon 26 [11])?
Answer: 48%

Question: What about the T/C (B16 [21]) of the same molecule?
Answer: 85.1%

Question: And the T/C (P388 [22])?
Answer: 144%

Question: And the T/C (Colon 26 [23])?
Answer: 78%

Question: And the T/C (Colon 26 [12])?
Answer: 50.3%

Question: And the T/C (Colon 26 [13])?
Answer: 55.8%

Question: And the T/C (P388 [24])?
Answer: 163%

Question: And the T/C (B16 [15])?
Answer: 55.5%

Question: What about the T/C (Colon 26 [16]) of the same molecule?
Answer: 88%

Question: What about the T/C (B16 [25]) of the same molecule?
Answer: 62.4%

Question: What about the T/C (P388 [3]) of the same molecule?
Answer: 144%

Question: And the T/C (B16 [17])?
Answer: 49.9%

Question: `COc1ccc(C[C@H]2C(=O)N[C@H](C)C(=O)N(C)[C@H]3Cc4cccc(c4)Oc4cc(ccc4OC)C[C@@H](C(=O)N[C@H](C)C(=O)N[C@@H](C)C(=O)N2C)N(C)C3=O)cc1` was tested. Which T/C (P388 [26]) did it give?
Answer: Toxic

Question: `COc1ccc(C[C@H]2C(=O)N[C@@H](C)C(=O)N(C)[C@H]3Cc4cccc(c4)Oc4cc(ccc4OCCN4CCCCCC4)C[C@@H](C(=O)N[C@H](C)C(=O)N[C@@H](C)C(=O)N2C)N(C)C3=O)cc1` [listing 2 of 2 here] was tested. Which IC50 (KB) did it give?
Answer: 0.0076 µg/mL (≈ 0.00862 µM)

Question: Which IC50 (KB) does the source give for `COc1ccc(C[C@H]2C(=O)N[C@@H](C)C(=O)N(C)[C@H]3Cc4cccc(c4)Oc4cc(ccc4OCCN(C)C)C[C@@H](C(=O)N[C@H](C)C(=O)N[C@@H](C)C(=O)N2C)N(C)C3=O)cc1` [listing 2 of 2 here] here?
Answer: 0.025 µg/mL (≈ 0.0302 µM)

Question: And the IC50 [27]?
Answer: 0.079 µg/mL (≈ 0.0954 µM)

Question: What about the IC50 (L1210) of the same molecule?
Answer: 0.018 µg/mL (≈ 0.0217 µM)

Question: How did the T/C (P388 [1]) turn out when `COc1ccc(C[C@H]2C(=O)N[C@@H](C)C(=O)N(C)[C@H]3Cc4cccc(c4)Oc4cc(ccc4OCCN4CCCC4)C[C@@H](C(=O)N[C@H](C)C(=O)N[C@@H](C)C(=O)N2C)N(C)C3=O)cc1` was run?
Answer: 124%

Question: What about the T/C (P388 [2]) of the same molecule?
Answer: 134%

Question: And the T/C (P388 [3])?
Answer: 112%
